Reference: patent US11311513B2, “Methods, agents, and compositions for the treatment of acute myeloid leukemia” (UNIVERSITY OF CINCINNATI, priority 2017, dated 2022)

What was measured:
[1] = system: wild-type mouse BM progenitor cells transduced with MLL-AF9; assay: Viability of MLL-AF9-transduced wild-type BM progenitor cells; type: cell-based; details: 48 hrs
Description: FIG. 5. […] Gene expression levels are shown. […] ChIP-qPCR assay was carried out 48 hrs after drug treatment. Enrichment of STAT3, STAT5, or IgG at the TET1 promoter region and other regions are shown. […] BM progenitor cells of wild-type or Tet1^−/− mice were retrovirally transduced with MLL-AF9. […] Relative cell viabilities are shown. (m) Cre-Tet1f mouse BM progenitor cells were retrovirally transduced with MLL-AF9. […] Relative cell viability is shown. (n-o) THP-1 (n) and MONOMAC-6 (o) cells were infected with lentivirus of pLenti-puro vector-based Tet1 construct. […] Relative cell viability is shown. *, P<0.05; **, P<0.01, two-tailed t-test. Error bar indicates SD of triplicate experiments.
siRNAs were transfected into MONOMAC-6 cells with Cell Line Nucleofector Kit V following program T-037, using the Amaxa Nucleofector Technology (Amaxa Biosystems, Berlin, Germany). Experiments were performed 48 h after transfection. Retrovirus infection of mouse BM progenitor cells were conducted as described previously with some modifications. Briefly, retrovirus vectors were co-transfected with pCL-Eco packaging vector (IMGENEX, San Diego, Calif.) into HEK293T cells using Effectene Transfection Reagent (Qiagen, Valencia, Calif.) to produce retrovirus. […]

[2] = system: BM cells of leukemic mice with MLL-AF9 fusion (MA9-AML) or FLT3-ITD/NPM1^mut; assay: MTS and apoptosis assays in BM cells of leukemic mice; type: cell-based; details: 50 nM; 3 days
Description: FIG. 14. […] BM cells of leukemic mice with MLL-AF9 fusion (MA9-AML) or FLT3-ITD/NPM1^mut, and c-Kit^+ HSPCs from a pool of 6 healthy donor mice were cultured in liquid medium. […] MTS (a), apoptosis assays (b) and qPCR (c) were conducted 3 days after cell seeding or drug treatments. Error bar indicates SD of triplicate experiments.
These experiments were conducted as described previously (Jiang, X., et al., Blockade of miR-150 Maturation by MLL-Fusion/MYC/LIN-28 Is Required for MLL-Associated Leukemia, Cancer Cell 22:524-35 (2012); Li, Z., et al., miR-196b directly targets both HOXA9/MEIS1 oncogenes and FAS tumour suppressor in MLL-rearranged leukaemia, Nat Commun 2:688 (2012)) with ApoLive-Glo Multiplex Assay Kit, or CellTiter 96 AQueous Non-Radioactive Cell Proliferation Assay Kit (Promega, Madison, Wis.).

[3] = system: 5hmC peak enrichment in the whole genome; assay: Genome-wide 5hmC-seq in ML-2 AML cells; type: cell-based, human
Description: FIG. 12. […] 5hmC peak counts at different IDR cutoffs were shown. (b) Read density across 5hmC enriched regions. A unified catalog of 5hmC enriched regions was generated. Shown are heatmaps rank-ordered by reads per kilobase of exon model per million mapped reads (RPKM) of 5hmC-Seal samples minus that of the input samples. (c) Read density across all RefSeq genes. Shown are heatmaps of 5hmC read density changes across all RefSeq gene loci and 5 kb flanking regions (minus input values).
100 ng genomic DNA extracted from ML-2 cell were fragmented in 50 jiL Tagmentation buffer at 55° C. Fragmented DNA was purified by Zymo DNA clean&concentrator Kit (Zymo Research, Tustin, Calif.). Then, the selective 5hmC chemical labeling was performed in 25 jiL glucosylation buffer (50 mM HEPES buffer pH 8.0, 25 mM MgCl2) containing above fragmented DNA, 100 μM N3-UDP-Glc, 1 μM β-GT, and incubated at 37° C. for 2 hr. […] The libraries were quantified by a Qubit fluorometer (Life Technologies) and sequenced on an Illumina HiSEQ4000 sequencer with paired-end 50-bp reads.
The gene network was analyzed with Ingenuity Pathway Analysis (Qiagen). […] For 5hmC sequencing analysis, illumina sequencing reads were mapped to UCSC hg19 human reference genome using bowtie program. Only uniquely mapped reads were retained for the following data analysis. […]

| Structure (SMILES) | cell viability [1] | viability of AML cells [2] | reduction of 5hmC peak enrichment in the whole genome [3] |
| --- | --- | --- | --- |
| COc1cc(C(c2cc3c(cc2O)OCO3)N2CCCC2)cc(OC)c1OC (stereo not drawn) [NSC-370284, 6-(1-Pyrrolidinyl(3,4,5-trimethoxyphenyl)methyl)-1,3-benzodioxol-5-ol] | remarkable repression of cell viability | dramatically suppressed | around 75% |
| CC(C)(C)c1cc(C(c2cc3c(cc2O)OCO3)N2CCOCC2)cc(C(C)(C)C)c1O (stereo not drawn) [UC-514321, 6-{[4-Hydroxy-3,5-bis(2-methyl-2-propanyl)phenyl](4-morpholinyl)methyl}-1,3-benzodioxol-5-ol] | remarkable repression of cell viability | dramatically suppressed | around 75% |
